In patent US11312721B2 (priority 2015, dated 2022) one finds Ki and activation data, which are given here for 49 compounds.

The target in experiment [1] is T1, α5β3γ2 GABAA receptors (Ltk cells) (Homo sapiens, UniProt P18507+P31644).
T1 construct: membranes
Nature of the experiment: Binding activity on GABAAR: inhibition of [3H]Ro15-1788 binding. The procedure: Tissue culture and Membrane Preparation: The binding was performed on Ltk cells stably expressing GABAA receptors: α1β1γ2, α2β3γ2, α3β3γ2 and α5β3γ2 (provided by Merck Co., NJ, USA). Cells were seeded in 100 mm culture plates in DMEM/F12 medium containing 10% serum and antibiotics in 5% CO2 and allowed to grow for 1-2 days. GABAAR expression was then induced by dexamethasone as follows: 0.5 μM for 1 day for α5 containing and 2 μM for 3 days for α1, α2 and α3 containing GABAARs. After induction, cells were collected by scraping into Dulbecco's Phosphate buffered saline (DPBS, pH 7.4, Invitrogen, Carlsbad, Calif., USA) and centrifuged at 150×g for 10 min. The pellet was washed twice by re-suspension and centrifugation. The cell pellets from at least 5 different preps were combined, suspended in the binding assay buffer (50 mM KH2PO4; 1 mM EDTA; 0.2 M KCl, pH 7.4) and membranes prepared by sonication (3-5 times, 30 sec) using Branson Sonifier 150 (G. Heinmann, Germany). Protein content was determined using BCA assay (Bio-Rad Labs, Reinach, Switzerland) with Bovine Serum Albumin (Sigma Aldrich, St. Louis, Mo., USA) as the standard. Aliquots were prepared and stored at −20° C. for further use in binding assays.
Ligand Binding: Saturation binding curves were obtained by incubating membranes with increasing concentrations (0.01-8 nM) of [^3H]Ro15-1788 (Flumazepil, 75-85 Ci/mmol, PerkinElmer, MA, USA), with nonspecific binding measured in the presence of 10 μM diazepam.
All binding assays were performed for 1 h at 4° C. in assay buffer. The total assay volume was 0.5 ml containing 0.2 mg/ml protein for α5 and 0.4 mg/ml for α1, α2, and α3 containing GABAAR membranes. Incubations were terminated by filtration through GF/B filters using a 24-Cell Harvestor (Brandel, Gaithersburg, Md., USA) followed by 3 washes with ice-cold assay buffer. Filters were transferred to scintillation vials, 5 ml scintillation liquid added, vortex-mixed and kept in dark. Next day, radioactivity was obtained using a scintillation counter (Beckman Coulter, Brea, Calif., USA). All assays were performed in triplicate.
Data Analyses: Saturation and inhibition curves were obtained using GraphPad Prism software (GraphPad Software, Inc., CA, USA).

The target of another experiment is T2, GABAA receptors (α5β2γ2) (Homo sapiens, UniProt P18507+P31644).
T2 construct: expressed in transfected cells
T2 sequence (P31644 32-462): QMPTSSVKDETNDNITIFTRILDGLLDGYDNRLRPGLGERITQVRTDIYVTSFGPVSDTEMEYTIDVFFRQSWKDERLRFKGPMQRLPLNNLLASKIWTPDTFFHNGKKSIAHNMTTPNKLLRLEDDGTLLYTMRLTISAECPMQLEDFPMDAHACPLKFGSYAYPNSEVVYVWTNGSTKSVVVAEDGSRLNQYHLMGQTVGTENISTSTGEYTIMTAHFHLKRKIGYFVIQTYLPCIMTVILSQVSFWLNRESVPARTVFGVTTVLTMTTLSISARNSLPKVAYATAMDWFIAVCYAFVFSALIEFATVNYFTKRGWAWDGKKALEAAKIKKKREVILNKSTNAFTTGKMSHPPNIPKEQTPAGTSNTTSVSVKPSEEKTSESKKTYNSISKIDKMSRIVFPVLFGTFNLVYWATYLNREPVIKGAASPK
T2 sequence (P47870 25-512 partner limits assumed): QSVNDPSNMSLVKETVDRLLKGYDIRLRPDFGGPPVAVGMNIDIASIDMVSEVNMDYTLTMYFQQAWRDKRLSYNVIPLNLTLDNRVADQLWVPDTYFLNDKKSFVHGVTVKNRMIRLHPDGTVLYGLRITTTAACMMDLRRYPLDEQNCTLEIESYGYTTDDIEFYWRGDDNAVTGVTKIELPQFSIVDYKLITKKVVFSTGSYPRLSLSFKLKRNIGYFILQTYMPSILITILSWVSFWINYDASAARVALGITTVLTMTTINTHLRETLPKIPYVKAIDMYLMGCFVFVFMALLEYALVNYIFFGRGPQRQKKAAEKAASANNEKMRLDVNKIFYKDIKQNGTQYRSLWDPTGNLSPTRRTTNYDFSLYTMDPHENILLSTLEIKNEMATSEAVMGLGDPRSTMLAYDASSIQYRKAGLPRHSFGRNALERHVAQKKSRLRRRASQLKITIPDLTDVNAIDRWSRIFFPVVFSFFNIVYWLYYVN
T2 sequence (P18507 40-475): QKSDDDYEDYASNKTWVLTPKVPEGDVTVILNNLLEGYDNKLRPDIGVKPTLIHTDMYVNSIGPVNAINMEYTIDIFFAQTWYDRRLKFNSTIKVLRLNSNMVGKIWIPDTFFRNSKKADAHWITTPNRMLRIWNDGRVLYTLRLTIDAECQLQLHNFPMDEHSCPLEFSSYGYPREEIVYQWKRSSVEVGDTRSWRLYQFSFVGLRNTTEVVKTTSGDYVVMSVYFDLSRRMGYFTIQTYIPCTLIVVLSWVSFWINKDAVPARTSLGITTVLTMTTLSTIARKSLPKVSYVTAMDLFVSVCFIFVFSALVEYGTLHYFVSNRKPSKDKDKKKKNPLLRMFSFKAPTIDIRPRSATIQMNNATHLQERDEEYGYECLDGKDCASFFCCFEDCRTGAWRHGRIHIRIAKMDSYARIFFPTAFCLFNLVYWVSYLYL
Nature of the experiment: Positive allosteric modulator activity: potentiation of EC20 GABA current in oocytes. The conditions noted are these: read-out: GABA α5 functional potentiation. The experiment is classed as cell-based. As for the experimental part: On day 1, 1 ng/32 nL of GABAA α5β2γ2 cDNA was injected into one oocyte. Test starts on day 2. The cDNA injected to the oocytes was a mix of alpha, beta and gamma, their ratio is 1:1:10 (by weight) and the total weight of the mixed 3 subunits to be injected in one oocyte was 1 ng in 32 nl volume. The injected oocytes can also be tested on day 3. In such case, the cDNA amount injected to the oocytes should be reduced by 20%.
1). 8 oocytes were placed in 8 chambers of OpusXpress and superfused with Modified Barth's Saline (MBS) at 3 mL/min. Glass electrodes back-filled with 3M KCl (0.5-3 megaohms) were used.
1). Repeat the above steps 1), 2) and 3) in the control test.
2). […] Divide Itest by IGABA to obtain potentiation (%).
3). Discard all tested oocytes, new oocytes were used and the above steps 1) and 2) were repeated to test second concentration of the same compound. Each oocyte was used for only one concentration test for a single test compound. The steps were repeated for other test compounds.

pKi: −log10 of the molar value.

T1 sequence (P31644 32-462): as the sequence (P31644 32-462) above
T1 sequence (P28472 26-473 partner): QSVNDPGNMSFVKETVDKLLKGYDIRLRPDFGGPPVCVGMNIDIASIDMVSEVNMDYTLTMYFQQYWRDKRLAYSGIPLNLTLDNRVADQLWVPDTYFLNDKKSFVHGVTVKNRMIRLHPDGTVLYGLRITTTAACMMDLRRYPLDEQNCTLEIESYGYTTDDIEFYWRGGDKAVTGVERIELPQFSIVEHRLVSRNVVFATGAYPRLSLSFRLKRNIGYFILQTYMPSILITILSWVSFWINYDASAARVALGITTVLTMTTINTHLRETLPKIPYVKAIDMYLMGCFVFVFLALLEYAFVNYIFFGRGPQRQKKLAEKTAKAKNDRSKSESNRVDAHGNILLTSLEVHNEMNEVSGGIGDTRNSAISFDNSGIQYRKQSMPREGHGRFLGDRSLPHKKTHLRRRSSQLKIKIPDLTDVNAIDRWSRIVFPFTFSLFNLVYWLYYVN
T1 sequence (P18507 40-475): as the sequence (P18507 40-475) above

In turn, `COc1ccc2c(c1)-n1nnc(COc3ccccc3)c1Cc1c(-c3noc(C)n3)ncn1-2` [Compound 182] showed a negative logarithm of the Ki (pKi) in experiment [1] greater than 7.00. In addition, the activation at 0.1 µM at GABAA receptors (α5β2γ2) lay within 20 to 49%.
`COc1ccc2c(c1)-n1nnc(COc3ccccc3F)c1Cc1c(-c3noc(C)n3)ncn1-2` [Compound 181]: in experiment [1], the pKi was greater than 7.00. Moreover, at GABAA receptors (α5β2γ2), the activation at 0.1 µM lay within 20 to 49%.
The corresponding values for `COc1ccc2c(c1)-c1nnc(COc3cccc(F)c3)n1Cc1c(C#N)ncn1-2` [Compound 196] are greater than 7.00 and 20 to 49%.
Regarding `CCc1nc(-c2ncn3c2Cc2c(Cc4ccccc4)nnn2-c2cc(OC)ccc2-3)no1` [Compound 194], the pKi in experiment [1] was greater than 7.00. In addition, the activation at 0.1 µM at GABAA receptors (α5β2γ2) is greater than 50%.
For `CCOCc1nnc2n1Cc1c(C3=N[C@H](c4ccccc4)CO3)ncn1-c1ccc(Cl)cc1-2` [Compound 271], in that order: greater than 7.00 and greater than 50%.
In experiment [1], `N#Cc1ncn2c1Cc1c(COc3ccccc3)nnn1-c1cc(Cl)ccc1-2` [Compound 226] had a pKi greater than 7.00. In addition, at GABAA receptors (α5β2γ2), the activation at 0.1 µM was 20 to 49%.
The compound `COc1ccc2c(c1)-n1nnc(COc3ccc(F)cc3)c1Cc1c(C#N)ncn1-2` [Compound 222] showed a pKi in experiment [1] greater than 7.00. Besides, the activation at 0.1 µM on GABAA receptors (α5β2γ2) lay within 20 to 49%.
In experiment [1], `CC(C)c1nc(-c2ncn3c2Cn2c(COc4ccc(F)cc4)nnc2-c2cc(F)ccc2-3)no1` [Compound 189] gave a pKi greater than 7.00. Moreover, the activation at 0.1 µM at GABAA receptors (α5β2γ2) lay within 20 to 49%.
In the case of `CCOC(=O)c1ncn2c1Cn1c(COc3ccccc3)nnc1-c1cc(F)ccc1-2` [Compound 137], the activation at 0.1 µM at GABAA receptors (α5β2γ2) was 20 to 49%.
The same measure, in the same setting: then `COCc1nnc2n1Cc1c(-c3nc(C)no3)ncn1-c1ccc(OC)cc1-2` [Compound 128], with 20 to 49%; and `CCOC(=O)c1ncn2c1Cn1c(COc3ccccc3)nnc1-c1cc(OC)ccc1-2` [Compound 55], with 20 to 49%.
As for `COc1ccc2c(c1)-c1nnc(COc3ccccc3)n1Cc1c(-c3noc(C(C)C)n3)ncn1-2` [Compound 171], at GABAA receptors (α5β2γ2), the activation at 0.1 µM is greater than 50%.
Take `COc1ccc2c(c1)-n1nnc(COc3ccccc3)c1Cc1c(C#N)ncn1-2` [Compound 224]: the pKi in experiment [1] is greater than 7.00. Besides, the activation at 0.1 µM at GABAA receptors (α5β2γ2) was 20 to 49%.
The corresponding values for `C#Cc1ncn2c1Cn1c(COc3ccccc3)nnc1-c1cc(Cl)ccc1-2` [Compound 205] are greater than 7.00 and 20 to 49%.
Consider `COCc1nnc2n1Cc1c(-c3nc(C(C)C)no3)ncn1-c1ccc(OC)cc1-2` [Compound 130], for which, on GABAA receptors (α5β2γ2), the activation at 0.1 µM is 20 to 49%.
Same read-out and setting: then `COc1ccc2c(c1)-c1nnc(COc3ccc(F)cc3)n1Cc1c(-c3noc(C(C)C)n3)ncn1-2` [Compound 172], with greater than 50%; and `COc1ccc2c(c1)-c1nnc(COc3ccccc3Cl)n1Cc1c(-c3noc(C(C)C)n3)ncn1-2` [Compound 175], with 20 to 49%.
In experiment [1], `CCOCc1nnc2n1Cc1c(-c3noc(C(C)C)n3)ncn1-c1ccc(F)cc1-2` [Compound 187] gave a pKi greater than 7.00. Besides, at GABAA receptors (α5β2γ2), the activation at 0.1 µM was in the range of 20 to 49%.
The corresponding values for `COc1ccc2c(c1)-n1nnc(Cc3cccnc3)c1Cc1c(C#N)ncn1-2` [Compound 210] are greater than 7.00 and 20 to 49%.
On to `Cc1noc(-c2ncn3c2Cc2c(C)nnn2-c2cc(F)ccc2-3)n1` [Compound 110], for which the activation at 0.1 µM at GABAA receptors (α5β2γ2) is 20 to 49%.
As to `CCOC(=O)c1ncn2c1Cc1c(COc3ccccc3)nnn1-c1cc(OC)ccc1-2` [Compound 9], the activation at 0.1 µM on GABAA receptors (α5β2γ2) was 20 to 49%.
The same measure, in the same setting: then `Cc1noc(-c2ncn3c2Cc2c(Cc4ccccc4)nnn2-c2cc(F)ccc2-3)n1` [Compound 109], with 20 to 49%.
As to `COc1ccc2c(c1)-n1nnc(Cc3ccccc3)c1Cc1c(C#N)ncn1-2` [Compound 207], in experiment [1], the negative-log Ki (pKi) is greater than 7.00. Besides, the activation at 0.1 µM on GABAA receptors (α5β2γ2) was in the range of 20 to 49%.
In experiment [1], `COc1ccc2c(c1)-c1nnc(COCc3cccnc3)n1Cc1c(-c3noc(C(C)C)n3)ncn1-2` [Compound 203] showed a pKi greater than 7.00. The activation at 0.1 µM on GABAA receptors (α5β2γ2) was in the range of 20 to 49%.
In experiment [1], `COCc1nnc2n1Cc1c(C#Cc3ccccc3C)ncn1-c1ccc(Cl)cc1-2` [Compound 293] gave a pKi greater than 7.00. For the same compound, the activation at 0.1 µM at GABAA receptors (α5β2γ2) is 20 to 49%.
In the case of `COc1ccc2c(c1)-c1nnc(COc3ccccc3)n1Cc1c(-c3noc(C)n3)ncn1-2` [Compound 162], on GABAA receptors (α5β2γ2), the activation at 0.1 µM is 20 to 49%.
Regarding `Clc1ccc2c(c1)-c1nnc(COc3ccccc3)n1Cc1c(Br)ncn1-2` [Compound 202], in experiment [1], the negative-log Ki (pKi) was greater than 7.00. Further, the activation at 0.1 µM at GABAA receptors (α5β2γ2) lay in the range of 20 to 49%.
As for `COc1ccc2c(c1)-c1nnc(COc3ccccc3)n1Cc1c(C(=O)OC(C)C)ncn1-2` [Compound 120], the activation at 0.1 µM at GABAA receptors (α5β2γ2) lay within 20 to 49%.
The same measure, in the same setting: then `Cc1nnn2c1Cc1c(C(=O)OC(C)C)ncn1-c1ccccc1-2` [Compound 153], with 20 to 49%; and `COc1ccc2c(c1)-n1nnc(Cc3ccc(F)cc3)c1Cc1c(Br)ncn1-2` [Compound 213], with 20 to 49%.
For the compound `Cc1nc(-c2ncn3c2Cc2c(C)nnn2-c2cc(F)ccc2-3)no1` [Compound 145], the activation at 0.1 µM on GABAA receptors (α5β2γ2) is greater than 50%.
The same measure, in the same setting: then `COc1ccc2c(c1)-c1nnc(COc3cccc(F)c3)n1Cc1c(-c3noc(C(C)C)n3)ncn1-2` [Compound 179], with greater than 50%; and `Cc1nnn2c1Cc1c(C(=O)OCC(C)(C)C)ncn1-c1ccc(F)cc1-2` [Compound 113], with greater than 50%.
The same measure, in the same setting: then `Cc1nc(-c2ncn3c2Cn2c(COc4ccccc4)nnc2-c2cc(F)ccc2-3)no1` [Compound 148], with 20 to 49%; and `COc1ccc2c(c1)-c1nnc(COc3cccnc3)n1Cc1c(-c3noc(C(C)C)n3)ncn1-2` [Compound 176], with greater than 50%.
For `CCc1nc(-c2ncn3c2Cn2c(COc4ccccc4)nnc2-c2cc(F)ccc2-3)no1` [Compound 158], the activation at 0.1 µM at GABAA receptors (α5β2γ2) is 20 to 49%.
For `CCOC(=O)c1ncn2c1Cc1c(COc3cccc(OC)c3)nnn1-c1cc(OC)ccc1-2` [Compound 11], at GABAA receptors (α5β2γ2), the activation at 0.1 µM fell in the range of 20 to 49%.
On the same count and under the same terms, under `Cc1nnn2c1Cc1c(C(=O)OCC(F)(F)F)ncn1-c1ccc(F)cc1-2` [Compound 114] stands greater than 50%; under `COc1ccc2c(c1)-c1nnc(COc3ccc(F)cc3)n1Cc1c(C#N)ncn1-2` [Compound 191], 20 to 49%.
For `COc1ccc2c(c1)-c1nnc(COc3cccc4ccccc34)n1Cc1c(-c3noc(C(C)C)n3)ncn1-2` [Compound 177], the activation at 0.1 µM at GABAA receptors (α5β2γ2) is greater than 50%.
The same measure, in the same setting: then `CCOC(=O)c1ncn2c1Cc1c(C)nnn1-c1cc(OC)ccc1-2` [Compound 1], with 20 to 49%; and `Cc1noc(-c2ncn3c2Cc2c(C)nnn2-c2ccccc2-3)n1` [Compound 126], with 20 to 49%; and `COc1ccc2c(c1)-c1nnc(COc3ccc(F)cc3)n1Cc1c(-c3noc(C)n3)ncn1-2` [Compound 163], with 20 to 49%.
Same read-out and setting: then `CCOC(=O)c1ncn2c1Cc1c(Cc3cccnc3)nnn1-c1cc(C)ccc1-2` [Compound 111], with 20 to 49%; and `COc1ccc2c(c1)-n1nnc(Cc3ccccc3)c1Cc1c(Br)ncn1-2` [Compound 212], with 20 to 49%; and `CCOCc1nnc2n1Cc1c(-c3noc(C(C)C)n3)ncn1-c1ccc(OC)cc1-2` [Compound 173], with greater than 50%.
The same measure, in the same setting: under `COc1ccc2c(c1)-c1nnc(COC3CCCC3)n1Cc1c(-c3noc(C(C)C)n3)ncn1-2` [Compound 178] stands greater than 50%; under `CCOC(=O)c1ncn2c1Cc1c(CN3CCCC3)nnn1-c1cc(OC)ccc1-2` [Compound 48], 20 to 49%; under `Cc1nnn2c1Cc1c(-c3noc(C(C)C)n3)ncn1-c1ccc(F)cc1-2` [Compound 149], greater than 50%.
